Test results: patent publication US7354711B2, “Methods for inhibiting immunostimulatory DNA associated responses” (University of Iowa Research Foundation, priority 1997, dated 2008)

Key:
[1] = tested on: WEHI 231 cells; assay: DNA fragmentation assay (α-sIgM-induced apoptosis); assay type: cell-based, mouse; details: 0.1 μM quinacrine, 6 μg/mL ODN 1760, α-sIgM, 16 hours
Procedure: The DNA fragmentation assay was carried out generally as follows. WEHI 231 cells were incubated with 0.5 μCi/milliliter [^3H] thymidine for 3 hours, centrifuged, resuspended in 2 milliliters of fresh medium at 2×10^5/milliliter, and incubated in a 24-well plate with additions as indicated. After incubation for 16-18 hours, 1 milliliter aliquots of the cells were centrifuged, washed with 200 μliters PBS. This suspension was drawn into a pipette tip containing 25 μliters of 2% SDS, and the mixture was immediately ejected into a well of a 0.8% agarose TBE gel containing 0.5 μliter/milliliter ethidium bromide. The gel was electrophoresed for 1 hour at 65 volts, destained in water, and photographed under ultraviolet light. The lanes of the gel were cut into three approximately equal portions. […] The gel portions were melted in glass scintillation vials and mixed with a 20 milliliter of scintillation cocktail and counted in a scintillation counter. The amount of fragmented DNA (DNA in the second and third gel pieces) was expressed as a percentage of the total counts recovered in the lane.
Referring to the experiments summarized in FIG. 2a, WEHI 231 cells (2×10^5 per milliliter) were incubated with or without 6 μgrams/milliliter ODN 1760, 10 μgrams/milliliter α-sIgM, or 0.1 μM quinacrine as indicated. Live cells were counted daily. […]

[2] = tested on: WEHI 231 cells; assay: CpG-ODN-induced IL-6 synthesis (ELISA); assay type: cell-based, mouse; details: 10 nM
Procedure: The assay of IL6 was generally carried out as follows. […] After 24 hours, the IL-6 content of the supernatant was assayed by enzyme-linked immunoassay using two monoclonal antibodies in a sandwich technique as described by the manufacturer, using standards supplied (PharMingen, San Diego Calif.).

[3] = tested on: 7TD1 cells; assay: Inhibition of 7TD1 cell growth; assay type: cell-based, mouse
Procedure: One particularly useful cell line for the assay of immunostimulatory DNA action is the mouse-mouse hybridoma plasma cell line 7TD1(ATTC #CRL 1851), which requires exoqenous IL-6 for growth, and has been used to characterize and assay IL-6 (Papadopolous et al., 1995. J. Clin. Lab. Anal. 9:234-7; Krakauer, 1993. J. Immunoassay 14:267-77).
The 7TD1 cells were grown in RPMI 1640 supplemented with 10% fetal bovine serum (heat inactivated at 65° C., 1 hour), 0.3 grams/Liter L-glutamine, 50 milligrams/Liter gentamycin, 0.05 mM 2-mercaptoethanol, and 10 units per milliliter murine IL-6 in a 37° C. humid atmosphere with 5% CO2. Viable 7TD1 cells were counted in a hemocytometer chamber in duplicate after dilution with 0.4% trypan blue.
The 7TD1 cells were incubated for five days and were washed twice with medium to remove IL-6, and resuspended at 2×10^4 per milliliter in medium. Cell counts were performed and the percent inhibition of growth was computed. The term “anti” refers to 40 nanograms/milliliter neutralizing antibody to IL-6.

[4] = tested on: human mononuclear cells; assay: ODN 1760-induced [3H] thymidine incorporation in human mononuclear cells; assay type: cell-based; details: unfractionated human peripheral blood cells, four days
Procedure: [^3H] thymidine incorporation (18 hour pulse) was then measured. […] Thymidine incorporation for untreated samples was less than 0.05%. Samples from three donors were averaged, and error bars indicate 1 standard deviation.

[5] = tested on: human peripheral blood mononuclear cells (PBMC); assay: ODN 1760-induced IL-6 production in human peripheral blood mononuclear cells; assay type: cell-based; details: 24 hours
Procedure: Referring to the experiments summarized in FIG. 9, human peripheral blood mononuclear cells (PBMC) from three donors were incubated with or without ODN 1760 and the indicated concentration of test compound. After 24 hours, the concentration of IL-6 was determined in the supernatant. The figure indicates the percentage of IL-6 in reference to ODN-treated cells. The IL-6 amounts for control sample per donor were as follows: donor 1, 203 picograms/milliliter; donor 2, 71.5 picograms/milliliter; donor 3, 465 picograms/milliliter. IL-6 measured from untreated cells was 0-21 picograms/milliliter. Results from the three donors were averaged, and error bars indicate 1 standard deviation.

[6] = tested on: WEHI 231 cells; assay: Protection by lipopolysaccharide against α-sIgM-induced inhibition of [3H] thymidine uptake; assay type: cell-based, mouse; details: 0.1 μM quinacrine, concentration that completely reversed the effect of ODN 1760
Procedure: The assay of [^3H] Thymidine incorporation was carried out as follows. WEHI 231 cells (200 μL at 2×10^5/milliliter, in duplicate or triplicate) were incubated in a 96-well plate (Costar, Cambridge Mass.). Additions were made as indicated. After incubating for 16 hours, 0.5 μCi [methyl-^3H] thymidine (2 Ci/millimole, DuPont NEN, Boston Mass.) was added to each well, and the cells were incubated for another 4 hours. Cellular DNA was then captured onto glass fiber filters (Whatman 934AH) using a cell harvester (Brandel, Gaithersberg Md.). The filters were dried, placed into plastic scintillation vials with 10 milliliters of scintillation cocktail (EconoSafe, Research Products International, Mount Prospect Ill.), and counted in a liquid scintillation counter (Beckman LS-3133 T). The ^3H recovered on the filter was expressed as a fraction of the ^3H added. In a typical experiment, WEHI 231 cells incorporate about 15% of added ^3H.
In the experiments summarized in FIG. 5, the influence of LPS on α-sIgM-induced suppression of thymidine incorporation was examined.
Lipopolysaccharide (LPS) was added at the indicated concentration with or without 10 μgrams/milliliter α-sIgM and 0.1 μM quinacrine. The small degree of protection against α-sIgM-induced inhibition of [^3H] thymidine uptake afforded by LPS is not influenced by quinacrine.

[7] = tested on: WEHI 231 cells; details: 0.1 μM quinacrine
Procedure: Unless otherwise noted, cell culture conditions were as follows. WEHI 231 cells (ATTC #CRL 1702) were grown in log phase in a medium of RPMI 1640 supplemented with 10% fetal bovine serum (heat inactivated at 65° C. for one hour), 0.3 grams/Liter of L-glutamine, 50 milligrams/Liter gentamycin, and 0.05 mM 2-mercaptoethanol in a 37° C. humid atmosphere with 5% CO2. WEHI 231 cells were diluted with 0.4% trypan blue in phosphate-buffered saline (PBS) and live cells were counted in a hemocytometer chamber. Cells were resuspended in medium at 2×10^5/milliliter in 24-well tissue culture plates (Costar, Cambridge Mass.). Appropriate additions were made, and the cells were incubated and counted daily. WEHI 231 cells were diluted with fresh medium if the concentration exceeded 7×10^5/milliliter.
Referring to the experiments summarized in FIG. 2a, WEHI 231 cells (2×10^5 per milliliter) were incubated with or without 6 μgrams/milliliter ODN 1760, 10 μgrams/milliliter α-sIgM, or 0.1 μM quinacrine as indicated. Live cells were counted daily. The cells were diluted in medium if their concentration exceeded 7×10^5 per milliliter.

[8] = 6 μg/mL ODN 1760, 0.1 μM compound
[9] = 6 μg/mL ODN 1760, 0.3 μM compound
[10] = 6 μg/mL ODN 1760, 1 μM compound
[11] = 10 μg/mL IL-6 + 0.1 μM compound
[12] = 10 μg/mL IL-6 + 0.3 μM compound

CCN(CC)CCCC(C)Nc1c2ccc(Cl)cc2nc2ccc(OC)cc12 (stereo not drawn) [quinacrine]
Reversal of ODN 1760 protection, percentage of fragmented DNA (FIG. 2b) [1]: reversed this protection
Reversal of ODN 1760 effect on IL-6 elaboration [2]: completely reversed
7TD1 cells/μL [3, 8]: 20 cells/μL
% Growth Inhibition [3, 8]: 95%
7TD1 cells/μL [3, 9]: 20 cells/μL
% Growth Inhibition [3, 9]: 95%
7TD1 cells/μL [3, 10]: 15 cells/μL
% Growth Inhibition [3, 10]: 96.3%
7TD1 cells/μL [3, 11]: 707 cells/μL
% Growth Inhibition [3, 11]: 20.2%
7TD1 cells/μL [3, 12]: 595 cells/μL
% Growth Inhibition [3, 12]: 32.9%
7TD1 cells/μL ([3]; 10 μg/mL IL-6 + 1 μM compound): 587 cells/μL
% Growth Inhibition ([3]; 10 μg/mL IL-6 + 1 μM compound): 33.8%
Effect on IL-6-induced growth ([3]; 7TD1 cells, IL-6): little effect
Effect on growth stimulation by CpG-ODN ([3]; 7TD1 cells, ODN 1760): blocked
Effect on ODN 1760-induced thymidine incorporation (FIG. 8) [4]: inhibited
Effect on ODN 1760-induced IL-6 production (FIG. 9) [5]: inhibited
Effect on the action of LPS (FIG. 5) [6]: no effect
Influence of compound alone on cell growth and on cell death induced by α-sIgM [7]: influenced neither cell growth nor cell death
Reversal of ODN 1760 protection, cell count over a period of three days (FIG. 2a) ([7]; 6 μg/mL ODN 1760, 10 μg/mL α-sIgM): reversed this protection
